The source of these data is patent US7786141B2 (Vertex Pharmaceuticals Incorporated, priority 2004, dated 2010).

The Emax is the maximal effect, on the per cent scale that the assay sets.

The target of assay [1] is T1, M1 muscarinic receptor (Homo sapiens, UniProt P11229).
T1 construct: expressed in transfected cells; host or cells: CHO (M1-CHO)
T1 sequence (P11229 1-460): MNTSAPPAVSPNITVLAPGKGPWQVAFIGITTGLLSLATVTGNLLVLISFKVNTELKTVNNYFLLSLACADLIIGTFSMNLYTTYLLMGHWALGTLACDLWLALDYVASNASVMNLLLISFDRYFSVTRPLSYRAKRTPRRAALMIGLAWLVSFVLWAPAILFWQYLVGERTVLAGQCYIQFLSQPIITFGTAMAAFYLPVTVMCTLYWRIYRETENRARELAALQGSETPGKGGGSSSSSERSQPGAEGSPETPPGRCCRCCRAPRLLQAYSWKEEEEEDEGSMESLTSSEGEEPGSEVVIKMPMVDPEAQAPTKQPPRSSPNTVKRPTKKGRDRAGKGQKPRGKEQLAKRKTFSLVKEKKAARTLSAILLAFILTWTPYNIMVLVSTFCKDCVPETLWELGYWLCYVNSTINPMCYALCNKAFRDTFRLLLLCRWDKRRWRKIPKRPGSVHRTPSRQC
Put plainly: Functional mobilization of intracellular calcium (FLIPR) in M1-CHO cells. The class given is cell-based. To be noted: Table 4; for Emax: 100% efficacy is the maximum response obtained with the Carbachol control; for M1 Activity: modulating M1 receptor. Put shortly:
(§1)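 Steps: seed M1- or M4-CHO cells 18-24 hrs ahead; load calcium dye with 1 mM probenecid; add test compound (0.5% DMSO final), either alone for agonism or 15 min before EC80 carbachol for inhibition; record FLIPR fluorescence for 60 sec.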
Background: Calcium flux is commonly read through the fluorescence of an indicator in the cells.

Assay [2] deals with T2, M4 muscarinic receptor (Homo sapiens, UniProt P08173).
T2 construct: expressed in transfected cells; host or cells: CHO (M4-CHO)
T2 sequence (P08173 1-479): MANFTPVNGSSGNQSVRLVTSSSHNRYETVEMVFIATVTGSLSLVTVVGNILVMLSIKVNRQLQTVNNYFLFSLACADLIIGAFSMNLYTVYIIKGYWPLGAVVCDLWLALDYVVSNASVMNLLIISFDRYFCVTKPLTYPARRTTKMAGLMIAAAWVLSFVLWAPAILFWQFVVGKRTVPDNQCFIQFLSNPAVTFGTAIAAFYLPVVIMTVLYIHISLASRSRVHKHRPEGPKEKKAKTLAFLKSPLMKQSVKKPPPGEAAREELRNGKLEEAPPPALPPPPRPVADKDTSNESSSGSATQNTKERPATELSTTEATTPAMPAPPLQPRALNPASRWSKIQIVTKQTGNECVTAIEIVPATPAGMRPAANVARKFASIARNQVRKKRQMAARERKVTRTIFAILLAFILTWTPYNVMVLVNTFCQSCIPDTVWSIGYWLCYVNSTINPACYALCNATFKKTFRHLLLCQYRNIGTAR
The assay is described as follows: Functional mobilization of intracellular calcium (FLIPR) in M4-CHO cells. It counts as cell-based. The following applies: Table 4; for Emax: 100% efficacy is the maximum response obtained with the Carbachol control; for M4 Activity: modulating M4 receptor. The method, boiled down:
as §1

Take `CC#CCOC(=O)N1CC[C@H](CN2CCC3(CC2)CN(C(C)=O)c2ccccc23)C1` [compound 637]: in assay [1], the Emax was above 100% and the “M1 Activity” value is given as “xxx (activity was measured to be less than 2.0 μM)”. Moreover, in assay [2], the Emax is 25 to 100% and the “M4 Activity” value is on record as “xxx (activity was measured to be less than 2.0 μM)”.
Regarding `CC(=O)N[C@H]1CC2(CCN(C3CCC(C(C)(C)C)CC3)CC2)c2ccccc21` (some centres unmarked) [compound 638], in assay [1], the Emax was below 25% and the “M1 Activity” value is “x (activity was measured to be greater than 5.0 μM)”. In assay [2], the Emax was below 25% and the “M4 Activity” value was “x (activity was measured to be greater than 5.0 μM)”.
`O=C(N[C@H]1CC2(CCN(CC3CCCCC3)CC2)c2ccccc21)c1ccoc1` [compound 639]: in assay [1], the Emax was in the range of 25 to 100% and the “M1 Activity” value was “x (activity was measured to be greater than 5.0 μM)”. Also, in assay [2], the Emax was below 25% and the “M4 Activity” value is given as “x (activity was measured to be greater than 5.0 μM)”.
For `CC(=O)N[C@H]1CC2(CCN(CC3CC4CCC3C4)C2)c2ccc(F)cc21` (some centres unmarked) [compound 640], in assay [1], the Emax was 25 to 100% and the “M1 Activity” value is “xxx (activity was measured to be less than 2.0 μM)”. Also, in assay [2], the Emax was in the range of 25 to 100% and the “M4 Activity” value was “xxx (activity was measured to be less than 2.0 μM)”.
Turning to `CC(=O)N[C@H]1CC2(CCN(C3CC(C)(C)CC(C)(C)C3)CC2)c2ccccc21` [compound 641], in assay [1], the Emax is below 25% and the “M1 Activity” value was “x (activity was measured to be greater than 5.0 μM)”. For the same molecule, in assay [2], the Emax was below 25% and the “M4 Activity” value is given as “x (activity was measured to be greater than 5.0 μM)”.
Regarding `c1ccc2c(c1)CCCC21CCN(C2C[C@@H]3CC[C@H]2C3)CC1` (some centres unmarked) [compound 642], in assay [1], the Emax lay within 25 to 100% and the “M1 Activity” value is given as “x (activity was measured to be greater than 5.0 μM)”. Besides, in assay [2], the Emax was above 100% and the “M4 Activity” value is reported as “xxx (activity was measured to be less than 2.0 μM)”.
With `COc1cc2c(cc1OC)C1(CCN(C3CCCCC3)CC1)C[C@@H]2N(C(C)=O)[C@@H](C)c1ccccc1` [compound 643], in assay [1], the Emax is below 25% and the “M1 Activity” value is reported as “x (activity was measured to be greater than 5.0 μM)”. In addition, in assay [2], the Emax is below 25% and the “M4 Activity” value is listed as “x (activity was measured to be greater than 5.0 μM)”.
Take `CC(=O)N1CC2(CCN(CC3CCOCC3)CC2)c2cc(F)ccc21` [compound 644]: in assay [1], the Emax is below 25% and the “M1 Activity” value is reported as “x (activity was measured to be greater than 5.0 μM)”. In addition, in assay [2], the Emax is below 25% and the “M4 Activity” value is given as “x (activity was measured to be greater than 5.0 μM)”.
For the molecule `CCC#CCOC(=O)N1CC[C@@H](CN2CCC3(CC2)CN(C(=O)N(C)C)c2ccc(F)cc23)C1` [compound 645], in assay [1], the Emax lay in the range of 25 to 100% and the “M1 Activity” value is listed as “xxx (activity was measured to be less than 2.0 μM)”. Moreover, in assay [2], the Emax was in the range of 25 to 100% and the “M4 Activity” value is “xxx (activity was measured to be less than 2.0 μM)”.
As for `CC(=O)N[C@H]1CCC2(CCN(C3CCC(C(C)(C)C)CC3)CC2)c2ccccc21` (some centres unmarked) [compound 646], in assay [1], the Emax was in the range of 25 to 100% and the “M1 Activity” value was “xxx (activity was measured to be less than 2.0 μM)”. Besides, in assay [2], the Emax is below 25% and the “M4 Activity” value is recorded as “x (activity was measured to be greater than 5.0 μM)”.
As to `O=C1CCCN1[C@H]1CCC2(CCN(CC3CCCCC3)CC2)c2ccccc21` [compound 647], in assay [1], the Emax was in the range of 25 to 100% and the “M1 Activity” value is reported as “xxx (activity was measured to be less than 2.0 μM)”. Moreover, in assay [2], the Emax fell in the range of 25 to 100% and the “M4 Activity” value is recorded as “xxx (activity was measured to be less than 2.0 μM)”.
On to `CCOC(=O)N1CCC(N2CCC3(CC2)CN(C(C)=O)c2ccc(-c4cccc(OC)c4)cc23)CC1` [compound 648], for which, in assay [1], the Emax was 25 to 100%; the “M1 Activity” value is “xx (activity was measured to be between 2.0 μM and 5.0 μM)”. Moreover, in assay [2], the Emax was below 25% and the “M4 Activity” value was “x (activity was measured to be greater than 5.0 μM)”.
Take `CN(C)C(=O)N1CC2(CCN(C3CCN(C(=O)c4cccs4)CC3)CC2)c2cc(F)ccc21` [compound 649]: in assay [1], the Emax lay within 25 to 100% and the “M1 Activity” value was “xxx (activity was measured to be less than 2.0 μM)”. In assay [2], the Emax was below 25% and the “M4 Activity” value is listed as “xxx (activity was measured to be less than 2.0 μM)”.
As for `O=C(N[C@H]1CC2(CCN([C@@H]3CC4CC[C@@H]3C4)CC2)c2ccccc21)C1CC1` [compound 650], in assay [1], the Emax is 25 to 100% and the “M1 Activity” value is “xxx (activity was measured to be less than 2.0 μM)”. In assay [2], the Emax lay within 25 to 100% and the “M4 Activity” value was “xxx (activity was measured to be less than 2.0 μM)”.
`CN(C)C(=O)N1CC2(CCN(C[C@H]3CCN(C(=O)OCC4CC4)C3)CC2)c2cc(F)ccc21` [compound 651]: in assay [1], the Emax lay within 25 to 100% and the “M1 Activity” value is “xxx (activity was measured to be less than 2.0 μM)”. In assay [2], the Emax fell in the range of 25 to 100% and the “M4 Activity” value was “xxx (activity was measured to be less than 2.0 μM)”.
With `CC(=O)N[C@H]1CCC2(CCN(C[C@H]3C[C@H]4C=CC3C4)CC2)c2ccccc21` [compound 652], in assay [1], the Emax was 25 to 100% and the “M1 Activity” value is “xxx (activity was measured to be less than 2.0 μM)”. In addition, in assay [2], the Emax was 25 to 100% and the “M4 Activity” value is “xxx (activity was measured to be less than 2.0 μM)”.
`CCOC(=O)N1CCC(N2CCC3(CC2)CN(C(C)=O)c2c(-c4ccc(C(F)(F)F)cc4)cccc23)CC1` [compound 653]: in assay [1], the Emax was in the range of 25 to 100% and the “M1 Activity” value is given as “x (activity was measured to be greater than 5.0 μM)”. Besides, in assay [2], the Emax lay within 25 to 100% and the “M4 Activity” value is reported as “x (activity was measured to be greater than 5.0 μM)”.
With `CC(=O)N[C@H]1CCC2(CCN(CC3CC4CCC3C4)CC2)c2ccccc21` (some centres unmarked) [compound 655], in assay [1], the Emax is 25 to 100% and the “M1 Activity” value is recorded as “xxx (activity was measured to be less than 2.0 μM)”. Moreover, in assay [2], the Emax lay in the range of 25 to 100% and the “M4 Activity” value is recorded as “xxx (activity was measured to be less than 2.0 μM)”.
`CCC#CCOC(=O)N1CCC(N2CCC3(CC2)CN(C(C)=O)c2ccccc23)CC1` [compound 656]: in assay [1], the Emax was in the range of 25 to 100% and the “M1 Activity” value is reported as “xxx (activity was measured to be less than 2.0 μM)”. Besides, in assay [2], the Emax fell in the range of 25 to 100% and the “M4 Activity” value is reported as “xxx (activity was measured to be less than 2.0 μM)”.
Consider `c1ccc2c(c1)CCCC21CCN(C2C[C@@H]3CC[C@@H](C2)C3)CC1` (some centres unmarked) [compound 657], for which, in assay [1], the Emax lay within 25 to 100%; the “M1 Activity” value is “xx (activity was measured to be between 2.0 μM and 5.0 μM)”. In assay [2], the maximum response (Emax) lay in the range of 25 to 100% and the “M4 Activity” value is “xxx (activity was measured to be less than 2.0 μM)”.
With `COCCOC(=O)N1CCC(N2CCC3(CC2)CN(CCOC)c2ccc(F)cc23)CC1` [compound 658], in assay [1], the Emax lay in the range of 25 to 100% and the “M1 Activity” value is “xxx (activity was measured to be less than 2.0 μM)”. Moreover, in assay [2], the Emax lay in the range of 25 to 100% and the “M4 Activity” value is on record as “xxx (activity was measured to be less than 2.0 μM)”.
For the molecule `Cc1cnc(C)c(N2CCC(N3CCC4(CC3)CN(C(=O)N(C)C)c3ccc(F)cc34)CC2)n1` [compound 659], in assay [1], the Emax lay in the range of 25 to 100% and the “M1 Activity” value is given as “xxx (activity was measured to be less than 2.0 μM)”. Moreover, in assay [2], the Emax lay within 25 to 100% and the “M4 Activity” value is on record as “xxx (activity was measured to be less than 2.0 μM)”.
Regarding `CN(C)C(=O)N1CC2(CCN(C[C@H]3CCN(c4cnccn4)C3)CC2)c2cc(F)ccc21` [compound 660], in assay [1], the Emax was above 100% and the “M1 Activity” value is given as “xxx (activity was measured to be less than 2.0 μM)”. Further, in assay [2], the maximal response (Emax) was above 100% and the “M4 Activity” value was “xxx (activity was measured to be less than 2.0 μM)”.
